# Patent US6548540B2, “Method of treating cancer using dithiocarbamate derivatives” (Charlotte-Mecklenburg Hospital Authority, priority 1998, dated 2003)
# Experiments:
# Type in all cases: cell-based, human
# M1619 melanoma cells = test: DNA cell cycle by flow cytometry; conditions: 24 hours
# Description: To study the effect of disulfiram on the DNA cell cycle, cells were grown to confluence in 25 cm^2 plastic flasks and treated for with 10% FBS plus DMSO vehicle, FBS and DMSO vehicle plus 250 μg/ml ceruloplasmin as a source of copper, FBS plus 5 μM disulfiram or FBS plus 5 μM disulfiram and 250 μg/ml ceruloplasmin. After 24 hours cells were trypsinized, washed twice in cold DPBS with 1 mM EDTA and 1% BSA, fixed 30 minute in ice-cold 70% ethanol, and stained by incubation for 30 minutes at 37° C. in a 10 μg/ml solution of propidium iodide in DPBS and 1 mg/ml RNase A. DNA cell cycle measurements were made using a FACStar^PLUS Flow Cytometer (Becton-Dickenson, San Jose, Calif.).
# The antiproliferative activity of dithiocarbamate disulfides depends on complexation with copper. PDTC induces apoptosis in normal thymocytes that is mediated by complexation of copper from fetal bovine serum in the medium and subsequent facilitation of copper transport into cells. […] Unsynchronized M1619 melanoma cells were grown in the presence of DMSO vehicle (A), 5 μM disulfiram (B), or 5 μM disulfiram plus 250 μg/ml ceruloplasmin (Cerulo) as a source of copper (C). Twenty-four hours later, cells were harvested and flow cytometric analysis was performed. The proportion of nuclei in each phase of the cell cycle (brackets) was determined with MODFIT DNA analysis software. Disulfiram increases the portion of cells in S phase. The combination of disulfiram and ceruloplasmin further increases the number of cells in S phase, prevents progression into the G2-M cell cycle and induces apoptosis.
# tumor cell lines = test: Proliferation of tumor cell lines with redox, NO synthase or cyclooxygenase agents (cell line not given)
# Description: Potential redox effects of disulfiram were studied in three sets of experiments. The importance of cellular glutathione (GSH) in mediating or modulating thiocarbamate toxicity was studied by measuring levels of intracellular GSH after treatment with disulfiram. […] Also, to assess whether a nonspecific antioxidant effect of disulfiram or PDTC might account for cellular growth inhibition, we studied the effect of the potent lipophilic antioxidant probucol (1.0 to 1,000 μM) on proliferation of malignant cell lines. […] To explore the role of cyclooxygenase inhibition on tumor cell growth, cells were cultured with or without disulfiram in the presence or absence of the cyclooxygenase-1 (COX1) and cyclooxygenase-2 (COX2) inhibitors indomethacin (5μg/ml) or sodium salicylate (1 mM). To probe whether disulfiram might be inducing growth retardation by interruption or stimulation of NO production, proliferation was studied with and without disulfiram in the presence and absence of the nitric oxide […] inhibitor Nω-nitro-L-arginine added to growth medium (100 μM). […] J. Respir. Cell Mol. Biol. 7:574-581 (1992); […], et al. R., supra; S. S. Brar, et al., “Requirement for reactive oxygen species in serum-induced and platelet-derived growth factor-induced growth of airway smooth muscle,” J. Biol. Chem. 274:20017-20026 (1999)). This assay empirically distinguishes between dead and living cells. For proliferation studies, cells were seeded into 24-well uncoated plastic plates (Costar) at 50,000 cells per well and cultured with respective media and mitogens. […] MTT-containing medium was removed, 0.5 ml dimethylsulfoxide (DMSO) was added to each well, and the absorbance of the solubilized purple formazan dye was measured at 540 nm. A total of 4-6 wells were studied at each treatment condition.
# AP-1 = test: EMSA of treated cells, AP-1 DNA binding; conditions: disulfiram plus copper; 24 hours; data not shown
# Description: Nuclear protein was isolated and DNA binding reactions were performed as previously described in detail (See, […], et al., “Dehydroepiandrosterone and analogs inhibit DNA binding of AP-1 and airway smooth muscle proliferation,” J. Pharmacol. Exper. Ther. 285:[…] (1998); T. Kennedy, et al., “Copper-dependent inflammation and nuclear factor-κB activation by particulate air pollution,” Am. J. Respir. Cell Mol. Biol. 19:366-378 (1998)). Monolayers were washed twice in cold DPBS and equilibrated 10 minutes on ice with 0.7 ml cold cytoplasmic extraction buffer, CEB (10 mM Tris, pH 7.9, 60 mM KCl, 1 mM EDTA, 1 mM DTT) with protease inhibitors, PI (1 mM Pefabloc, 50 μg/ml antipain, 1 μg/ml leupeptin, 1 μg/ml pepstatin, 40 μg/ml bestatin, 3 μg/ml E-64 and 100 μg/ml chymostatin). The detergent Nonidet P-40 (NP-40) was added to a final concentration of 0.1% and cells were dislodged with a cell scraper. Nuclei were pelleted by centrifugation and washed with CEB/PI. […]
# NF-κB = test: EMSA of treated cells, NF-κB DNA binding; conditions: disulfiram plus copper; 12 hours; data not shown
# Description: Nuclear protein was isolated and DNA binding reactions were performed as previously described in detail (See, […], et al., “Dehydroepiandrosterone and analogs inhibit DNA binding of AP-1 and airway smooth muscle proliferation,” J. Pharmacol. Exper. Ther. 285:[…] (1998); T. Kennedy, et al., “Copper-dependent inflammation and nuclear factor-κB activation by particulate air pollution,” Am. J. Respir. Cell Mol. Biol. 19:366-378 (1998)). Monolayers were washed twice in cold DPBS and equilibrated 10 minutes on ice with 0.7 ml cold cytoplasmic extraction buffer, CEB (10 mM Tris, pH 7.9, 60 mM KCl, 1 mM EDTA, 1 mM DTT) with protease inhibitors, PI (1 mM Pefabloc, 50 μg/ml antipain, 1 μg/ml leupeptin, 1 μg/ml pepstatin, 40 μg/ml bestatin, 3 μg/ml E-64 and 100 μg/ml chymostatin). The detergent Nonidet P-40 (NP-40) was added to a final concentration of 0.1% and cells were dislodged with a cell scraper. Nuclei were pelleted by centrifugation and washed with CEB/PI. […] Competition experiments were performed with 10×unlabeled wild-type oligonucleotide sequences for CRE or […] and 3'-[NT]5'), added before labeled probe. Supershift experiments were performed by incubating the binding reaction with 1 μg of supershifting antibody prior to electrophoresis. […] Gels were dried and analyzed by autoradiography at -80° C. using an image intensifier screen. […]
# [1] = 5 μM disulfiram plus 250 μg/ml ceruloplasmin
smiles,measurement,setting,value
"CCN(CC)C(=S)SSC(=S)N(CC)CC [Disulfiram, tetraethylthiuram disulfide]",apoptotic cells,M1619 melanoma cells; [1],6%
same,cells in G2-M,M1619 melanoma cells; [1],none
same,cells in S phase,M1619 melanoma cells; [1],Over two-thirds
same,cell cycle distribution,M1619 melanoma cells; 5 μM disulfiram,increases the portion in S phase
same,inhibition of growth,tumor cell lines; disulfiram alone,36.8±4.0%
same,inhibition of growth,tumor cell lines; disulfiram plus LNAME,26.7±3.1%
same,DNA binding of AP-1,AP-1,inhibited
same,DNA binding of NF-κB,NF-κB,inhibited
